Source: paper PMC10974505, “Evaluation of the Antifungal and Antiproliferative Properties of the Lichen Roccella tinctoria DC. Extracts and Main Components” (Pharmaceutics, 2024)
≈ marks a conversion by molar mass, not a printed value.

Key:
[1] = system: HCT-116 colon cancer cells; parameters: method as in PMID 35190352; conditions: cited from earlier work
C. albicans biofilm [2] = assay: Anti-Candida biofilm formation, 24 h (CV assay); type: cell-based, Candida albicans; conditions: concentration not given
Protocol: Presterilized, polystyrene, flat-bottom 48-well microtiter plates were used to investigate anti-Candida adhesion property of the extracts and the compounds [47, 48]. […] After that time, the cell suspensions were aspirated, and each well was washed twice with PBS to remove loosely adherent cells. Thus, CV assay was used to quantitatively study Candida adhesion (90 min) and early biofilm formation (24 h). The biomass was measured at 590 nm using a microplate reader.
(§1) Candida adhesion is followed by the colonization and formation of the biofilm, which is a community of cells with the ability to secrete the extracellular matrix (ECM). Biofilm-characterized infections are the most difficult to treat, and preventing biofilm formation could be of major importance. An anti-Candida biofilm formation assay was conducted after 24 h and 48 h of biofilm incubation, and the total biomass was evaluated using the CV assay.

A549 lung cancer cells = assay: MTT cytotoxicity assay, A549 lung cancer cells; type: cell-based, human; conditions: for cytotoxicity at the highest concentration tested: A549 cells, 500 µg/mL
Text: (§2) A549 cells were kindly provided by Prof. Lucia Nencioni (Dept. of Public Health and Infectious Diseases, Sapienza University of Rome, Rome, Italy), while Mz-ChA-1 and H69 cells were donated by Prof. Romina […]. of Anatomical, Histological, Forensic and Orthopedic Sciences, Sapienza University of Rome, Rome, Italy) and Prof. […] (Indiana University School of Medicine, Indianapolis, IN, USA). BEAS-2B cells were provided by Sigma-Aldrich (St. Louis, MO, USA). […] The growth media were replaced twice per week; subcultures were prepared when the cells achieved approximately 80% confluency. […] In brief, 2 × 10^4 cells/well were cultured into 96-well microplates for 24 h. Then, they were subjected to a treatment with progressive concentrations of the tested extracts for further 24 h. […] The effect of the treatments on the cell viability was expressed as percentage of the vehicle control. […] In addition, tolerability studies in human epithelial BEAS-2B bronchial cells and H69 cholangiocytes were performed in order to establish the possible selective cytotoxicity of the tested samples to cancer cells.

H69 cholangiocytes = assay: MTT tolerability assay, noncancerous H69 cholangiocytes; type: cell-based, human; conditions: MTT, 24 h treatment, confidence limits in brackets, ne 1 = not evaluable, highest inhibitory effect lower than 80%, ne 2 = not evaluable, lower inhibitory effect higher than 40%; for IC50: Homo sapiens, read-out: IC50 [µg/mL] (CL) H69
Text: as §2

[3] = as above; type: cell-based, human; conditions: human, SV40-immortalized H69 cholangiocytes (noncancerous); 50 µg/mL; read-out: lowering of H69 cell viability
Text: as §2

[4] = system: different fungal strains including C. albicans; parameters: method as in PMID 30732479; conditions: cited from earlier work
[5] = system: C. albicans planktonic cells; assay: Antifungal susceptibility test (broth microdilution), planktonic cells; type: cell-based, Candida albicans ATCC 10231; conditions: for MIC50 / MIC90 / MIC: Candida albicans; for MIC50: read-out: GM MIC50; for MIC90: minimum inhibitory concentration of 90% fungal growth, read-out: GM MIC90; for MIC: minimum inhibitory concentration of 100% fungal growth, read-out: GM MIC100
Protocol: Candida albicans ATCC 10231 was obtained from the American Type Culture Collection (ATCC, Rockville, MD, USA). The antifungal effects of the isolated compounds and of the extracts against C. albicans ATCC 10231 were measured using the broth microdilution method following the standardized methods for yeast. C. albicans was cultured on Sabouraud dextrose agar (Sigma Aldrich, St. Louis, MO, USA) at 35 °C for 24 h. The final concentration of the inoculum was 2500 cells/mL. The extracts and the compounds were firstly dissolved in DMSO and then diluted at least 100-times with RPMI-1640 medium buffered with MOPS (4-morpholinepropanesulfonic acid). […] The minimal inhibitory concentration (MIC) was calculated by comparison of the growth in each well with that of the drug-free control after 24 h. Each experiment was conducted in triplicate and replicated at least three times on different dates.
The antifungal activity of extracts and isolated compounds against C. albicans planktonic cells was examined following the standardized broth microdilution method for yeasts (CLSI M27-A3).

BEAS-2B bronchial cells = assay: MTT tolerability assay, noncancerous BEAS-2B bronchial cells; type: cell-based, human; conditions: for inhibition of BEAS-2B cell viability: 50 µg/mL; for IC50: Homo sapiens, BEAS-2B, read-out: IC50 [µg/mL] (CL) BEAS-2B
Text: as §2

C. albicans ATCC 10231 = assay: Galleria mellonella survival assay (larvae infected with C. albicans); type: in vivo
Protocol: The survival assay was carried out as described by Cairone and colleagues. G. mellonella larvae weighed 0.3 ± 0.03 g and were obtained from Todaro Sport (Rome, Italy). […] Three control groups were used, one with no treatment applied, one pierced and inoculated with sterile saline solution, and one treated with C. albicans suspension. The larvae were subsequently placed in an incubator set at 37 °C and observed for 120 h. […] Each trial was replicated three times, and the outcomes were documented as the survival percentage.
G. mellonella larvae as an in vivo model were chosen due to the similarities between their immunity system and the mammalian one. Furthermore, G. mellonella larvae provide a well-established in vivo model known for its ease of handling and utilization. They are extensively employed to assess the antimicrobial efficacy of both chemical and natural compounds, aligning with the ethical guidelines of the 3Rs (Replacement, Reduction, and Refinement) in animal research.

[6] = system: Mz-ChA-1 cholangiocarcinoma cells; assay: MTT cytotoxicity assay, Mz-ChA-1 cholangiocarcinoma cells; type: cell-based, human; conditions: for cytotoxicity at the highest concentration tested: Mz-ChA-1 cells, 500 µg/mL
Text: as §2

[7] = system: NCI-H460 (human lung cancer cell line); parameters: method as in doi:10.32508/stdjns.v2i5.779; conditions: NCI-H460, 100 µg/mL; isolated from Roccella sinensis; cited from earlier work
[8] = system: HepG2 (liver hepatocellular carcinoma cell line); parameters: method as in doi:10.32508/stdjns.v2i5.779; conditions: HepG2, 100 µg/mL; isolated from Roccella sinensis; cited from earlier work
[9] = system: MCF-7 (breast cancer cell line); parameters: method as in doi:10.32508/stdjns.v2i5.779; conditions: MCF-7, 100 µg/mL; isolated from Roccella sinensis; cited from earlier work
[10] = system: HeLa (cervical cancer cell line); parameters: method as in doi:10.32508/stdjns.v2i5.779; conditions: 100 µg/mL, isolated from Roccella sinensis; cited from earlier work
Fusarium oxysporum = system: Fusarium oxysporum; parameters: method as in doi:10.4038/jnsfsr.v40i1.4167; conditions: 100 µg/mL; cited from earlier work
C. albicans biofilm [11] = assay: Anti-Candida biofilm formation, 48 h (CV assay); type: cell-based; conditions: 512 μg/mL
Protocol: Candida biofilm was established on flat-bottomed, 48-well microtiter plates, following previous protocols with minor modifications. […] Plates were then incubated for 48 h at 37 °C. After biofilm formation, the medium was aspirated, and non-adherent cells were removed by washing twice with phosphate-buffered saline (PBS). C. albicans biomass was quantified using CV assay.
as §1

Alternaria solani = system: Alternaria solani; parameters: method as in doi:10.4038/jnsfsr.v40i1.4167; conditions: 100 µg/mL; cited from earlier work
[12] = MTT, 24 h treatment, confidence limits in brackets, ne 1 = not evaluable, highest inhibitory effect lower than 80%, ne 2 = not evaluable, lower inhibitory effect higher than 40%
[13] = geometric mean, minimum inhibitory concentration of 50% fungal growth, 24 h

Compound | MIC50 [5, 13] | MIC90 ([5]; geometric mean, 24 h) | MIC ([5]; geometric mean, 24 h) | cytotoxicity at the highest concentration tested (A549 lung cancer cells) | IC50 [µg/mL] (CL) A549 (A549 lung cancer cells; [12]) | IC50 (H69 cholangiocytes) | cytotoxicity at 24 h, 50 µg/mL [3] | inhibition of BEAS-2B cell viability (BEAS-2B bronchial cells) | IC50 [µg/mL] (CL) Mz-ChA-1 [6, 12] | cytotoxicity at the highest concentration tested [6] | IC50 (BEAS-2B bronchial cells; [12]) | other results
Cc1cc(OC(=O)c2c(C)cc(O)cc2O)cc(O)c1C(=O)O [lecanoric acid] | – | – | – | – | – | – | – | – | – | – | – | effect on HCT-116 cells [1]: affected the cell viability and colony formation, and it induced a cell cycle block
COc1cccc2c1C(=O)c1c(O)c3c(c(O)c1C2=O)C[C@@](O)(C(=O)CO)C[C@@H]3O[C@H]1C[C@H](N)[C@H](O)[C@H](C)O1 [Doxorubicin, doxorubicin, reference compound] | – | – | – | – | – | 15.7 µg/mL (≈ 28.9 µM) | – | – | – | – | 4.1 µg/mL (≈ 7.54 µM) | IC50 (A549 lung cancer cells; Homo sapiens, A549, MTT, 24 h treatment, confidence limits in brackets, ne 1 = not evaluable, highest inhibitory effect lower than 80%, ne 2 = not evaluable, lower inhibitory effect higher than 40%, read-out: IC50 [µg/mL] (CL) A549): 17.3 µg/mL (≈ 31.8 µM); IC50 ([6]; Homo sapiens, MTT, 24 h treatment, confidence limits in brackets, ne 1 = not evaluable, highest inhibitory effect lower than 80%, ne 2 = not evaluable, lower inhibitory effect higher than 40%, read-out: IC50 [µg/mL] (CL) Mz-ChA-1): 24.5 µg/mL (≈ 45.1 µM)
Cc1cc(O)cc(O)c1C(=O)OCC(O)C(O)CO (centres unmarked) [Compound 3, montagnetol] | – | – | – | – | – | – | – | – | – | – | – | melting point: 158 to 160 °C

Now from value to compound, other results behind:

MIC50 [5, 13] | MIC90 ([5]; geometric mean, 24 h) | MIC ([5]; geometric mean, 24 h) | Compound | cytotoxicity at the highest concentration tested (A549 lung cancer cells) | IC50 [µg/mL] (CL) A549 (A549 lung cancer cells; [12]) | IC50 (H69 cholangiocytes) | cytotoxicity at 24 h, 50 µg/mL [3] | inhibition of BEAS-2B cell viability (BEAS-2B bronchial cells) | IC50 [µg/mL] (CL) Mz-ChA-1 [6, 12] | cytotoxicity at the highest concentration tested [6] | IC50 (BEAS-2B bronchial cells; [12]) | other results
> 128 µg/mL | > 128 µg/mL | > 128 µg/mL | Cc1cc(OC(=O)c2c(C)cc(O)cc2O)cc(O)c1C(=O)OCC(O)C(O)CO (centres unmarked) [Compound 1, erythrin] | at least 60% | ne ^1 | 138 µg/mL (≈ 327 µM) | ~40% | at least 40% | ne ^1 | at least 60% | – | percent rate of inhibition of biofilm formation (C. albicans biofilm [2]): lower than 40%; antifungal activity [4]: not shown any antifungal activity; activity against the planktonic growth of C. albicans ([5]; at the highest concentration (512 μg/mL)): no activity; IC50 [µg/mL] (CL) BEAS-2B (BEAS-2B bronchial cells; [12]): ne ^2; infected larvae mortality rate (C. albicans ATCC 10231; 256 μg/mL (10 μL), control group mortality 90%): 20%; toxicity [7]: nontoxic; toxicity [8]: nontoxic; toxicity [9]: nontoxic; toxicity [10]: nontoxic
87 µg/mL (≈ 478 µM) | > 128 µg/mL | > 128 µg/mL | COC(=O)c1c(C)cc(O)cc1O [Compound 2, methyl orsellinate] | lower than 50% | ne ^1 | – | 60% | at least 40% | ne ^1 | lower than 50% | 103 µg/mL (≈ 564 µM) | IC50 [µg/mL] (CL) H69 (H69 cholangiocytes): ne ^2; inhibition percentage (Fusarium oxysporum): 67.39%; GM MIC50 [5, 13]: 87 µg/mL; inhibition at 512 µg/mL (C. albicans biofilm [11]): 72%; inhibition percentage (Alternaria solani): 58.41%; larvae survival rate (C. albicans ATCC 10231; 512 μg/mL (10 μL), after 5 days, infected control survival 10%): 50%
